Data taken from patent publication US9955676B2, “Transgenic model for delay-type hypersensitivity (DTH) and use thereof” (Macau University of Science and Technology, priority 2014, dated 2018).

Experiments:
[1] = target: T1, IKK-β C46A mutant (Homo sapiens, UniProt O14920, C46A); assay: IKK-β kinase assay (K-LISA IKKβ-Inhibitor Screening Kit) on cysteine mutants; assay type: biochemical; settings: FIG. 6a
T1 construct: FLAG; made in house
T1 sequence (O14920 1-756 C46A): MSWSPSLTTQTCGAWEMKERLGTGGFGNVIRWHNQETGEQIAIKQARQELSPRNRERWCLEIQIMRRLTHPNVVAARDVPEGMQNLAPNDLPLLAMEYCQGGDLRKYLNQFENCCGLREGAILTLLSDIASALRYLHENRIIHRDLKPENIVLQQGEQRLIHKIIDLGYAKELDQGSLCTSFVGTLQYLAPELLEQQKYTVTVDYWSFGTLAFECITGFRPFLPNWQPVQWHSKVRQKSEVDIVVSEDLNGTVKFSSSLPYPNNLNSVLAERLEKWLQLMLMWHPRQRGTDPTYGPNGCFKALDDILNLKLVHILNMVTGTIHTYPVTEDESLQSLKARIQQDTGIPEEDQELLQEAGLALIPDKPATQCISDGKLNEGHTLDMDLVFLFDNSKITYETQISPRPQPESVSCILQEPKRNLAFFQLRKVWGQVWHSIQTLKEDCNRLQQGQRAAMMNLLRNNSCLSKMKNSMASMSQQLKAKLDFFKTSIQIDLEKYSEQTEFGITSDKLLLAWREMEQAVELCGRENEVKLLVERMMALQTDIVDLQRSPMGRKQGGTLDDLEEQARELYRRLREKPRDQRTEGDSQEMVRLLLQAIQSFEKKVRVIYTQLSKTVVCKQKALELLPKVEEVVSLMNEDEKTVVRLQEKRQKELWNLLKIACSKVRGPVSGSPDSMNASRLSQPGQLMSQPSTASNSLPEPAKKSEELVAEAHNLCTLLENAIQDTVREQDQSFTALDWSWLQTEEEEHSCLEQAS
Method: IKK-β kinase assay is performed using a K-LISA™ IKKβ-Inhibitor Screening Kit (Calbiochem).
To determine the specificity to which cysteine residue(s) on IKK-β for the inhibitory action of a well-known inhibitor, DMY, all other 15 single point mutation IKK-β constructs with cysteine (C) residues are replaced with alanine (A) by site-directed mutagenesis (FIG. 6a), except Cys-46.

[2] = system: IKK-β (wt) / NF-κB signaling; assay: Western blotting of TNF-α-stimulated IKK-β−/− MEFs transfected with IKK-β wild-type; assay type: cell-based, mouse; settings: DMY pretreatment 60 min, FIG. 6c
Method: Western Blotting Analysis.
IKK-β^−/− deficient mouse embryonic fibroblasts (MEFs) are provided as a gift by Prof. Michael Karin (University of California, San Diego). IKK-β^−/− deficient MEFs transfected with IKK-β wild-type or mutant C46A constructs are pretreated with DMY at 37° C. for 60 min, and then the cells are stimulated with TNF-α and harvested for western blotting analysis. The expressions of IκBα, p-p65^ser536, FLAG-IKK-β and actin are detected with their specific antibodies.

[3] = system: IKK-β+/+ mice; assay: DNFB-induced delay-type hypersensitivity test with immunohistochemical staining, wild-type mice; assay type: in vivo, mouse; settings: DNFB-induced DTH, FIG. 7
Source text: (§1) Delay-Type Hypersensitivity Test and Immunohistochemical Staining.
(§2) The in vivo anti-inflammatory effect of DMY on CD4^+ and CD8^+ lymphocytes is examined by administering this inhibitor to the mouse with delay-type hypersensitivity (DTH) based on the previously described method. The ear samples of DTH mice are fixed in 4% neutral-buffered formalin. Each sample is cut longitudinally into half and embedded in paraffin (Panreac), and then cut into 5 μm sections. Immunohistochemical staining is performed on slides.

[4] = system: IKK-β C46A mutant mice; assay: DNFB-induced delay-type hypersensitivity test with immunohistochemical staining, mutant mice; assay type: in vivo, mouse; settings: homozygous IKK-β C46A mutant mice
Source text: as §1, §2

[5] = system: CIA rats; assay: Collagen-II induced arthritis (CIA) rat model; assay type: in vivo
Method: Experimental arthritis induced by collagen-II in rats. CIA is induced in female Wistar rats. Dexamethasone (DEX, 0.1 mg/kg), methotrexate (MTX, 3.75 mg/kg, twice per week) and indomethacin (Indo, 1 mg/kg) are used as reference drugs.

kinase inhibitory effect (phosphorylation of IκBα) [1]: abrogates the kinase inhibitory effect
Compound: O=C1c2c(O)cc(O)cc2O[C@H](c2cc(O)c(O)c(O)c2)[C@H]1O [DMY, dihydromyricetin]
TNF-α-induced phosphorylation of NF-κB p65 and degradation of IκBα [2]: suppression of TNF-α-induced phosphorylation of NF-κB p65 and degradation of IκBα
number of CD8+ lymphocytes in ear sections [3]: gradually decreases
anti-inflammatory potency in DTH responses [4]: diminished anti-inflammatory potency
NF-κB signaling in the knee synovial tissues ([5]; CIA rats, FIG. 8c): significantly suppress
organ indexes ([5]; CIA rats, FIG. 8d): no adverse impairment
body weight ([5]; CIA rats, compared to vehicle- and reference reagents-treated animals, FIG. 8e): prevent loss of body weight
hind paw volumes ([5]; compared to vehicle-treated CIA rats, FIG. 8a): significantly decrease
arthritic scores ([5]; compared to vehicle-treated CIA rats, FIG. 8b): significantly decrease
